Measured values published in US20180146698A1, “FORMULA FEED FOR POULTRY” (JXTG Nippon Oil & Energy Corporation, priority 2015, published 2018).

Legend:
chickens [1] = assay: Chicken egg color enhancement test 2: yolk color fan value, feeds with corn contents of 30% to 50%; type: in vivo; settings: for color fan value compared with t-capsanthin: corn contents of 30% and 50%
Procedure: The effects of the present invention were confirmed using feeds with corn contents of 30% to 50% in the same manner as in Example 1. Formula feeds were prepared by adding astaxanthin or t-capsanthin to feeds with the compositions listed in Table 5 so as to result in a final concentration of 1 to 16 ppm. In this Example, the feeds were the same except the corn content and the content of brown rice, which is added depending on a decrease in the corn content, and corn-derived corn gluten meal was not mixed therein. FIGS. 8a and 8b show the relationship between the astaxanthin and t-capsanthin concentrations in the feeds with corn contents of 30% and 50% and the yolk color fan values for the obtained eggs. Based on the results of FIGS. 8a and 8b, the concentrations of astaxanthin and t-capsanthin to be added to a feed in order to achieve a desired color fan value of 10 to 15 were calculated for feeds with corn contents of 30% and 50% (Table 6).

Julia Light hens [2] = assay: Chicken egg color enhancement test 1: yolk color fan value, low- and standard-corn-content feed; type: in vivo, chickens; settings: for change of color fan value, low-corn-content vs standard-corn-content feed / CF value: colorant added at 4 ppm
Procedure: A preparation of dry cells of a Paracoccus bacterium (with an astaxanthin content of 2%) and a paprika colorant preparation (with a t-capsanthin content of 0.25%) were used as coloring agents for evaluation. Cells of a nitrosoguanidine mutant strain obtained from the Paracoccus carotinifaciens E-396 strain (FERM BP-4283) were used as carotenoid-producing Paracoccus bacterial cells for a preparation of dry cells of a Paracoccus bacterium. The preparation was cultured in a seed flask medium and then cultured in a main culture medium at 28° C. under aerobic conditions until the bacterial cell concentration reached the maximum level. Next, the cultured cells were collected and recovered using a centrifuge. The recovered Paracoccus bacterial cells were dried using a double drum dryer at a drum rotation speed of 3.5 rpm and a drum temperature of 140° C. The average particle size (volume particle size D50) of the obtained power was approximately […]. The powder was further finely powderized (pulverized) using a jet mill (Seishin Enterprise Co., Ltd.) so that the average particle size (D50) became 9 μm. The obtained product was used as a preparation of dry cells of a Paracoccus bacterium. As a paprika colorant preparation, Color Up (a product with a total xanthophyll concentration of 5 g/kg, Kohkin Chemical Co., Ltd.) was used. The above preparations were added to a low-corn-content feed and a standard-corn-content feed listed in Table 1, thereby preparing formula feeds each containing astaxanthin or t-capsanthin at a final concentration of 1, 2, 4, or 8 ppm. Table 2 lists measured concentrations of astaxanthin and t-capsanthin contained in the actually produced formula feeds. Julia Light hens were used for tests. Ten chickens were provided for each test plot. The acclimatization period was set to 2 weeks. Eggs collected in Week 2, during which the color fan value became stabilized, or later, were evaluated. Eggs were collected from each test plot. The color fan values of 10 chicken eggs were measured using Egg Multitester EMT-7300 (JA Z-Tamago Co., Ltd.) for each test plot. The yolk carotenoid concentration was determined for 3 eggs for each test plot. FIGS. 1 and 2 show the relationship between the concentrations of astaxanthin and t-capsanthin in both feeds and the yolk color fan values of the obtained eggs. Based on the results of FIGS. 1 and 2, the concentrations of astaxanthin and t-capsanthin to be added to the low-corn-content feed in order to achieve a desired color fan value of 10 to 15 were calculated (Table 3). For example, in order to achieve a color fan value of 13, astaxanthin may be added to the low-corn-content feed so as to result in a final concentration of 2.2 ppm. Meanwhile, t-capsanthin needs to be added so as to result in a final concentration of 4.3 ppm.

Julia Light hens [3] = assay: Yolk carotenoid concentration by HPLC, eggs of Example 1; type: in vivo, chickens; settings: colorant added at 1 to 8 ppm
Procedure: Eggs were collected from each test plot. The color fan values of 10 chicken eggs were measured using Egg Multitester EMT-7300 (JA Z-Tamago Co., Ltd.) for each test plot. The yolk carotenoid concentration was determined for 3 eggs for each test plot.
Carotenoid quantities in the yolk and each feed were determined via high performance liquid chromatography (HPLC) as described below.
Two columns (Inertsil SIL-100A, 5 μm (ϕ 4.6×250 mm), GL Sciences) were connected in series for use. Elution was carried out with the introduction of an n-hexane/tetrahydrofuran/methanol liquid mixture (40:20:1) as a mobile phase at a constant temperature (around room temperature) and a flow rate of 1.0 mL per minute. Upon determination, samples were each dissolved in tetrahydrofuran and appropriately diluted with the mobile phase such that injection volume was adjusted to 20 μL. The detection for column eluate was carried out at a wavelength of 470 nm.
The yolk carotenoid concentration of eggs obtained in Example 1 was determined by the method described in Example 1 for three eggs for each test plot.
The standard-corn-content feed and the low-corn-content feed were compared in terms of the colorant concentration in the yolk when the coloring agents used in Example 1 were added to each feed at concentrations of 1 to 8 ppm.

[4] = cited from earlier work
[5] = cited from earlier work; remark: listed apart in the source
chickens [6] = assay: Yolk carotenoid content and composition 2 (eggs of Examples 5 and 6); settings: corn contents of 30% to 50%; 1 to 16 ppm; fed 2 to 4 weeks
chickens [7] = assay: Yolk color measurement using colorimeter 2 (eggs of Example 8); type: in vivo; settings: 2 ppm or 4 ppm; corn contents of 0% to 30%
Procedure: The yolk color of eggs obtained in Example 8 was measured using a colorimeter (CM-700d, Konica Minolta Inc.). FIGS. 14a to 14c show the measurement results of the L*, a*, and b* values, respectively.

chickens [8] = assay: Chicken egg color enhancement test 3: yolk color fan value, feeds with corn contents of 0% to 30%; type: in vivo; settings: coloring agent 2 ppm or 4 ppm
Procedure: The effects of the present invention were confirmed using feeds with corn contents of 0% to 30% in the same manner as in Example 1.
Formula feeds were prepared by adding astaxanthin or t-capsanthin to feeds with the compositions listed in Table 7 so as to result in a final concentration of 2 ppm or 4 ppm. In this Example, the feeds were the same except the corn content and the content of brown rice, which is added depending on a decrease in the corn content, and corn-derived corn gluten meal was not mixed therein.

chickens [9] = assay: Yolk color measurement using colorimeter 1 (eggs of Example 5); type: in vivo; settings: coloring agent 8 ppm or less; corn content 30% to 50%
Procedure: The yolk color was measured using a colorimeter (CM-700d, Konica Minolta Inc.) for eggs obtained in Example 5 and eggs obtained by using formula feeds listed in Table 5, which had been prepared by adding astaxanthin or t-capsanthin to a feed with a corn content of 40% so as to result in a final concentration of 2 ppm. FIGS. 9a to 9c show the measurement results of the L*, a*, and b* values, respectively.

chickens [10] = assay: Yolk carotenoid content and composition 3 (eggs of Example 8); type: in vivo; settings: 2 ppm or 4 ppm; corn contents of 0% to 30%; fed 2 to 4 weeks
Procedure: The yolk carotenoid concentration in eggs obtained in Example 8 was determined for five eggs for each test plot in the same manner as in Example 1.

[11] = desired CF value 10, 30% Corn feed
[12] = desired CF value 10, 50% Corn feed
[13] = desired CF value 11, 30% Corn feed
[14] = desired CF value 11, 50% Corn feed
[15] = desired CF value 12, 30% Corn feed
[16] = desired CF value 12, 50% Corn feed
[17] = desired CF value 13, 30% Corn feed
[18] = desired CF value 13, 50% Corn feed
[19] = desired CF value 14, 30% Corn feed
[20] = desired CF value 14, 50% Corn feed
[21] = desired CF value 15, 30% Corn feed
[22] = desired CF value 15, 50% Corn feed
[23] = desired CF value 10, low-corn-content feed
[24] = desired CF value 11, low-corn-content feed
[25] = desired CF value 12, low-corn-content feed
[26] = desired CF value 13, low-corn-content feed
[27] = desired CF value 14, low-corn-content feed

CC1=C(/C=C/C(C)=C/C=C/C(C)=C/C=C/C=C(C)/C=C/C=C(C)/C=C/C2=C(C)C(=O)[C@@H](O)CC2(C)C)C(C)(C)C[C@H](O)C1=O [Astaxanthin, astaxanthin]
color fan value compared with t-capsanthin (chickens [1]; coloring agent 1 to 8 ppm): greater than those obtained using t-capsanthin
color fan value compared with t-capsanthin (chickens [1]; coloring agent 16 ppm): no significant difference
Astaxanthin/t-Capsanthin ratio (chickens [1]; [11]): 62%
Colorant concentration in feed to achieve desired CF value (chickens [1]; [11]): 1.3 ppm
Astaxanthin/t-Capsanthin ratio (chickens [1]; [12]): 58%
Colorant concentration in feed to achieve desired CF value (chickens [1]; [12]): 1.4 ppm
Astaxanthin/t-Capsanthin ratio (chickens [1]; [13]): 61%
Colorant concentration in feed to achieve desired CF value (chickens [1]; [13]): 1.7 ppm
Astaxanthin/t-Capsanthin ratio (chickens [1]; [14]): 61%
Colorant concentration in feed to achieve desired CF value (chickens [1]; [14]): 1.9 ppm
Astaxanthin/t-Capsanthin ratio (chickens [1]; [15]): 61%
Colorant concentration in feed to achieve desired CF value (chickens [1]; [15]): 2.2 ppm
Astaxanthin/t-Capsanthin ratio (chickens [1]; [16]): 63%
Colorant concentration in feed to achieve desired CF value (chickens [1]; [16]): 2.5 ppm
Astaxanthin/t-Capsanthin ratio (chickens [1]; [17]): 64%
Colorant concentration in feed to achieve desired CF value (chickens [1]; [17]): 3.0 ppm
Astaxanthin/t-Capsanthin ratio (chickens [1]; [18]): 65%
Colorant concentration in feed to achieve desired CF value (chickens [1]; [18]): 3.4 ppm
Astaxanthin/t-Capsanthin ratio (chickens [1]; [19]): 63%
Colorant concentration in feed to achieve desired CF value (chickens [1]; [19]): 4.0 ppm
Astaxanthin/t-Capsanthin ratio (chickens [1]; [20]): 69%
Colorant concentration in feed to achieve desired CF value (chickens [1]; [20]): 4.7 ppm
Astaxanthin/t-Capsanthin ratio (chickens [1]; [21]): 64%
Colorant concentration in feed to achieve desired CF value (chickens [1]; [21]): 6.3 ppm
Astaxanthin/t-Capsanthin ratio (chickens [1]; [22]): 82%
Colorant concentration in feed to achieve desired CF value (chickens [1]; [22]): 8.0 ppm
amount of astaxanthin relative to t-capsanthin to achieve the desired color fan value (Julia Light hens [2]; color fan value of 13, low-corn-content feed): approximately 51%
change of color fan value, low-corn-content vs standard-corn-content feed (Julia Light hens [2]): increased
CF value (Julia Light hens [2]; standard-corn-content feed): 12.8
Astaxanthin/t-Capsanthin ratio (Julia Light hens [2]; [23]): 0.56
Colorant concentration in feed necessary for achieving the desired CF value (Julia Light hens [2]; [23]): 1.0 ppm
Astaxanthin/t-Capsanthin ratio (Julia Light hens [2]; [24]): 0.54
Colorant concentration in feed necessary for achieving the desired CF value (Julia Light hens [2]; [24]): 1.3 ppm
Astaxanthin/t-Capsanthin ratio (Julia Light hens [2]; [25]): 0.53
Colorant concentration in feed necessary for achieving the desired CF value (Julia Light hens [2]; [25]): 1.7 ppm
Astaxanthin/t-Capsanthin ratio (Julia Light hens [2]; [26]): 0.51
Colorant concentration in feed necessary for achieving the desired CF value (Julia Light hens [2]; [26]): 2.2 ppm
Astaxanthin/t-Capsanthin ratio (Julia Light hens [2]; [27]): 0.53
Colorant concentration in feed necessary for achieving the desired CF value (Julia Light hens [2]; [27]): 3.2 ppm
Colorant concentration in feed necessary for achieving the desired CF value (Julia Light hens [2]; desired CF value 15, low-corn-content feed): 7.0 ppm
yolk colorant concentration, low-corn-content vs standard-corn-content feed (Julia Light hens [3]): greater than that in eggs obtained from chickens fed with the standard-corn-content feed
singlet oxygen quenching activity, stronger compared with vitamin E [4]: about 500 fold
lipid peroxidation inhibition activity, stronger compared with vitamin E [5]: about 1000 fold
amount of colorant accumulated in the yolk in relation to corn content (chickens [6]): tended to increase as the corn content decreased
a* value (red color) of yolk in relation to corn content (chickens [7]): did not cause the a* value to significantly vary
color fan value compared with t-capsanthin (chickens [8]): greater than that achieved by using t-capsanthin
a* value (red color) of yolk compared with t-capsanthin (chickens [9]): greater than that obtained with the addition of t-capsanthin
concentration transferred to the yolk compared with t-capsanthin (chickens [10]): greater than that of t-capsanthin

CC1=C(/C=C/C(C)=C/C=C/C(C)=C/C=C/C=C(C)/C=C/C=C(C)/C=C/C(=O)[C@]2(C)C[C@@H](O)CC2(C)C)C(C)(C)C[C@H](O)C1 (relative stereo) [t-Capsanthin, trans-capsanthin, reference compound]
Colorant concentration in feed to achieve desired CF value (chickens [1]; [11]): 2.1 ppm
Colorant concentration in feed to achieve desired CF value (chickens [1]; [12]): 2.4 ppm
Colorant concentration in feed to achieve desired CF value (chickens [1]; [13]): 2.8 ppm
Colorant concentration in feed to achieve desired CF value (chickens [1]; [14]): 3.1 ppm
Colorant concentration in feed to achieve desired CF value (chickens [1]; [15]): 3.6 ppm
Colorant concentration in feed to achieve desired CF value (chickens [1]; [16]): 4.0 ppm
Colorant concentration in feed to achieve desired CF value (chickens [1]; [17]): 4.7 ppm
Colorant concentration in feed to achieve desired CF value (chickens [1]; [18]): 5.2 ppm
Colorant concentration in feed to achieve desired CF value (chickens [1]; [19]): 6.4 ppm
Colorant concentration in feed to achieve desired CF value (chickens [1]; [20]): 6.8 ppm
Colorant concentration in feed to achieve desired CF value (chickens [1]; [21]): 9.8 ppm
Colorant concentration in feed to achieve desired CF value (chickens [1]; [22]): 9.7 ppm
change of color fan value, low-corn-content vs standard-corn-content feed (Julia Light hens [2]): did not increase
CF value (Julia Light hens [2]; low-corn-content feed): 12.2
CF value (Julia Light hens [2]; standard-corn-content feed): 12.7
Colorant concentration in feed necessary for achieving the desired CF value (Julia Light hens [2]; [23]): 1.8 ppm
Colorant concentration in feed necessary for achieving the desired CF value (Julia Light hens [2]; [24]): 2.4 ppm
Colorant concentration in feed necessary for achieving the desired CF value (Julia Light hens [2]; [25]): 3.2 ppm
Colorant concentration in feed necessary for achieving the desired CF value (Julia Light hens [2]; [26]): 4.3 ppm
Colorant concentration in feed necessary for achieving the desired CF value (Julia Light hens [2]; [27]): 6.0 ppm
a* value (red color) of yolk in relation to corn content (chickens [7]): increased in proportional to the corn content
